The values that follow come from patent US20240238214A1, “NANOCONSTRUCTS AND NANOPARTICLE-MEDIATED DELIVERY OF IMMUNOGENIC CELL DEATH INDUCERS FOR ENHANCING CANCER IMMUNOTHERAPY” (Purdue Research Foundation, priority 2021, published 2024).

In general, IC50 refers to the midpoint of a concentration-inhibition curve. For orientation: solubility means how much of the substance goes into solution per volume. A low value points to a poorly soluble substance.

In one data set the test system is CT26 cells. Briefly: In vivo tumor vaccination study. Also on record: species or system Balb/c mice. The note with it: cells treated at 100× IC50 for 24 hours; three million dead cells; 500,000 live CT26 cells after 9 days. The procedure: The vaccination study, a standard test to verify bona fide ICD, was performed with PTX and CFZ (e.g., the candidate drugs) in vivo. The vaccination study involved generating tumor antigens by exposing tumor cells to lethal dose of ICD inducers. Potential ICD inducer-treated cells (i.e., the primary dose) were injected subcutaneously to immunocompetent mice. One week later, live tumor cells were injected on the contralateral side (i.e., the rechallenge), and the growth of the tumor was monitored to determine if the drug-killed tumor cells (i.e., the primary dose) can serve as a vaccine and prevent the growth of a live cell challenge.
Dead cells were collected and washed with PBS twice to remove excess amount of the drug.
Three million dead cells were injected into the right flanks of 6-week-old immunocompetent female Balb/c mice (i.e., the primary dose), the syngeneic host of CT26 cells. After 9 days, 500,000 live CT26 cells (live tumor cells) were inoculated subcutaneously in the contralateral side of the mice (i.e., the rechallenge) and tumor growth was monitored to determine the development of anti-tumor immunity.

Data set [1] concerns CT26 murine carcinoma, B16F10 murine carcinoma and 4T1 breast mammary carcinoma cells. As to the kind of experiment: HMGB1 release into medium (western blot). Type of data set: cell-based. As to conditions: treated at IC50 for 24 hours; supernatant.
Protocol: After 24 hours, supernatants were collected, and a western blot immunoassay was performed to determine the amount of HMGB1 present.
For data set [2] the test system is unchanged. Briefly: ATP secretion into medium (ATP determination kit). Type of data set: cell-based. As to conditions: treated at IC50 for 24 hours; supernatant. How it is done: (§1) The release of DAMPs from the treated cells were then analyzed (e.g., CRT exposure was measured by flow cytometry, HMGB1 was measured by quantifying western blot, and ATP was measured by ATP determination kit).
After 24 hours, supernatants were collected, and the amount of ATP in the supernatant was measured with ATP determination kit.

Data set [3] has the same test system. As to the kind of experiment: CRT exposure on cell surface (flow cytometry). In kind it is cell-based. The note with it: treated at IC50 for 6 hours; compared to control groups. How it is done:
as §1
After 6 hours, cells were washed with PBS and fixed with 4% […] (PFA). Fixed cells were incubated with FITC-labeled CRT antibodies. Cells were analyzed by the Accuri C6 flow cytometer to determine the population of CRT-positive cells.
Background: Flow cytometry measures light scatter and fluorescence of single cells or particles in a stream.

For data set [4] the following is noted: cited from earlier work.
The next data set has as its system CT26 murine carcinoma. As to the kind of experiment: Cytotoxicity by MTT assay, CT26. In kind it is cell-based. The note with it: Mus musculus; CT26 cells. The procedure:
(§2) As the nanoparticles hereof can be used to deliver ICD inducers to create tumor antigens, which need to be taken up by APCs, in certain embodiments, it is important for the formulations to kill tumor cells, while saving the host immune cells.
Cytotoxicity was assessed by the MTT assay. CT26 cells were seeded in 96 wells with 3,000 cells/well and cultured until 30% confluency. Cells were treated with varying concentrations of Drug, Drug@NP, Drug@NP-pD, Drug@NP-pD-ATP for 24 hours. After 24 hours, media was replaced, the cells were incubated for an additional 24 hours, and an MTT assay was performed to measure the number of viable cells present (see FIGS. 13A and 14A).
(In general: Tetrazolium dyes change colour on reduction, which living cells bring about.)

Another data set can be described thus: physchem. The note with it: aqueous with cosolvent or surfactant or cyclodextrin.
For data set [5], the system named is CT26 cells phagocytosed by JAWSII DCs. Briefly: Phagocytosis assay. In kind it is cell-based, murine. The note with it: CT26 treated with IC50 of drug, co-cultured with JAWSII for 24 hours. How it is done: A phagocytosis assay was performed to observe whether cells killed by ICD inducers will be taken up by dendritic cells (DCs).
CT26 cells were stained with Cell Tracker Green for 30 mins (0.5 μM) and washed once with cold serum free DMEM. CT26 cells were incubated overnight in 10% FBS media to allow any unbound dye to be inactivated. CT26 cells were collected and seeded (150,000 cells/well) in 6 wells plate for 24 hours. JAWSII cells were collected and stained with Cell Tracker Deep Red for 30 mins (0.5 μM) and washed once with cold serum free RPMI. JAWSII cells were incubated overnight in 10% FBS media to allow any unbound dye to be inactivated. […] After the treatment, CT26 containing 6 wells plate was centrifuged at 500 g×8 mins. Supernatant was aspirated to remove any remaining drugs. JAWSII cells (150,000 cells/well) were added to CT26, and cells were co-cultured for 24 hours. The co-cultured cells were collected, resuspended in the staining buffer, and analyzed by the Accuri C6 flow cytometer.

The next data set addresses T1, apyrase (Solanum tuberosum, UniProt P80595).
T1 construct: purchased Thermo Fisher Scientific Inc. (Waltham, MA)
T1 sequence (P80595 1-454): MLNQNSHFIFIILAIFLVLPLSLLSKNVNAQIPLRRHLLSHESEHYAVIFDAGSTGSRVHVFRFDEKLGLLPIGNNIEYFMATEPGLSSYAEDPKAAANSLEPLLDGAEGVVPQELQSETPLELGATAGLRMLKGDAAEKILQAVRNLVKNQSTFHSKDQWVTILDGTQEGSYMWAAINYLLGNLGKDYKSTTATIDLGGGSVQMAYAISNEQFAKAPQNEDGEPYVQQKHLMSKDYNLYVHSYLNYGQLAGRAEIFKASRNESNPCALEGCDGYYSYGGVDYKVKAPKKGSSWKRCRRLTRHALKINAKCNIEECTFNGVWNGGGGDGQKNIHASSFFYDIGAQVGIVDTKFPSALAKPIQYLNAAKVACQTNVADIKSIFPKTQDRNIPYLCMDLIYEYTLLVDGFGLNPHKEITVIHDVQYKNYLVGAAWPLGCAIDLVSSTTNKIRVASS
As to the kind of experiment: ATP level after incubation with apyrase (ATP bioluminescence assay). As to conditions: 10 μM ATP, 5 units/mL apyrase, 37° C., 10 minutes. In kind it is biochemical. The procedure: Further, to confirm the activity of apyrase against ATP, 10 μM ATP was incubated with or without 5 units/mL apyrase in 37° C. for 10 minutes. The ATP level after incubation was measured by ATP bioluminescence assay.

A further data set has as its system JAWSII cells. As to the kind of experiment: Stability against apyrase (DC migration assay in Transwell). In kind it is cell-based, murine. As to conditions: 10 μM ATP, 0.5 units of apyrase, 4 hours. The procedure:
To screen the effect of degrading enzyme to the nanoparticle-bound ATP, apyrase (a CD39 equivalent) was co-incubated with ATP or NP-pD-ATP, and a DC migration assay was performed in a Transwell (FIG. 9A). For the migration assay, 100 μL of 2×10^5 JAWSII cells, suspended in media, were added to the top of the Transwell (8 μm pore size). 600 μL of media containing 10 μM ATP conjugated nanoparticle was added to the bottom well (with or without 0.5 units of apyrase). Cells were incubated in 37° C. for 4 hours. Bottom media was collected to analyze the number of cells migrated by flow cytometry.

In a further data set the test system is JAWSII DCs. Briefly: Cytotoxicity by MTT assay, JAWSII. In kind it is cell-based, murine. The note with it: 96 hours. The procedure:
as §2
For JAWSII cells, JAWSII cells were seeded in 96 wells with 20,000 cells/well.

≈ marks a conversion by molar mass, not a printed value.

For the molecule `O=C1[O][Pt]2([NH][C@@H]3CCCC[C@H]3[NH]2)[O]C1=O` [OXA, oxaliplatin], the “tumor growth after live CT26 rechallenge in mice vaccinated with drug-treated dead cells” value (“tumor growth after live CT26 rechallenge” for short) in the data set on CT26 cells is “tumors did not grow”. Further, in [1], the HMGB1 release entry is on record as “induced the release of HMGB1”.

As for `CC(C)C[C@H](NC(=O)[C@H](CCc1ccccc1)NC(=O)CN1CCOCC1)C(=O)N[C@@H](Cc1ccccc1)C(=O)N[C@@H](CC(C)C)C(=O)[C@@]1(C)CO1` [CFZ, carfilzomib], the ATP secretion result in data set [2] is given as “caused the secretion of ATP”. Also, the CRT exposure result in data set [3] is listed as “induced the exposure of CRT”. Also, the “tumor growth after live CT26 rechallenge” value in the data set with CT26 cells was “tumors did not grow”. In addition, in data set [4], the water solubility is 0.7 to 3.6 µg/mL. Further, in the data set with CT26 murine carcinoma, the IC50 came out at 15 nM. Moreover, the HMGB1 release entry in data set [1] was “induced the release of HMGB1”. Besides, the concentration in solution in “physchem” (solubility) was 9 µg/mL (≈ 12.5 µM). Further, the “uptake of CT26 to the dendritic cells” value in [5] is “significantly increased the uptake of CT26 to the dendritic cells”.

Take `Nc1ncnc2c1ncn2[C@@H]1O[C@H](COP(=O)(O)OP(=O)(O)OP(=O)(O)O)[C@@H](O)[C@H]1O` [free ATP, adenosine triphosphate]: the “ATP level after incubation with apyrase” value on apyrase is given as “not detectable”. Besides, the “chemotactic ability (DC migration) in the presence of apyrase” value in the data set on JAWSII cells is “completely abolished the chemotactic ability of free ATP”.

As for `Nc1ccn([C@@H]2O[C@H](CO)[C@@H](O)C2(F)F)c(=O)n1` [GEM, gemcitabine], the CRT exposure result in [3] is given as “failed to induce CRT exposure”. In the data set with CT26 cells, the “tumor growth after live CT26 rechallenge” value is recorded as “Tumors grew in all animals”. For the same molecule, the HMGB1 release result in [1] is on record as “failed to induce HMGB1 secretion”.

On to `CC(=O)O[C@H]1C(=O)[C@@]2(C)[C@H]([C@H](OC(=O)c3ccccc3)[C@]3(O)C[C@H](OC(=O)[C@H](O)[C@@H](NC(=O)c4ccccc4)c4ccccc4)C(C)=C1C3(C)C)[C@]1(OC(C)=O)CO[C@@H]1C[C@@H]2O` [PTX, paclitaxel], for which the ATP secretion entry in [2] was “caused the secretion of ATP”. In addition, the CRT exposure entry in [3] is listed as “induced the exposure of CRT”. Further, the “tumor growth after live CT26 rechallenge” value with CT26 cells is “tumors did not grow”. Also, in the data set with JAWSII DCs, the “concentration with sudden decrease of DC viability” value was at least 30 µM. The molecule also showed a concentration for half-maximal inhibition (IC50) in the data set on CT26 murine carcinoma of 250 nM. For the same molecule, the HMGB1 release entry in data set [1] was “induced the release of HMGB1”. Besides, the “uptake of CT26 to the dendritic cells” value in [5] is reported as “significantly increased the uptake of CT26 to the dendritic cells”.
